Test results as given in US11629121B2, “Benzylideneacetone derivative and use thereof” (KORPHARM CO., LTD., priority 2017, dated 2023).

Tested on: RAW264.7 rat macrophage cell line
Assay: MTT assay, normal cells RAW264.7
Type: cell-based
Conditions: rat, 48 h
Text: (§1) The cytotoxicity against normal cells and cancer cells was confirmed using the MTT assay for the novel compounds KP2 to KP8 prepared in Example 1.
(§2) MTT assay method is as follows:
(§3) Normal cells (RAW264.7 rat macrophage cell line (osteoblast progenitor cell) and NIH3T3 mouse fibroblast line) and cancer cells (AGS human gastric cancer cell line, A549 human lung cancer cell line, HepG2 human liver cancer cell line, HCT116 human colon cancer cell line, PC3 human prostate cancer Cell line, Caki-1 human kidney cancer cell line, T24 human bladder cancer cell line, HT1080 human fibrosarcoma cell line, B16F10 mouse melanoma cell line) were cultured in 5% CO2 in 96-well plates containing DMEM with 10% FBS (fetal bovine serum). After incubation, KP2 to KP8 and controls (osmundacetone and 4-hydroxybenzalacetone) were added to the cell medium and incubated for 48 hours. Thereafter, 100 μl of MTT (0.5 mg/mL phosphate buffered saline) was added, followed by incubation for 2 hours. 100 μl of DMSO was added to each well, followed by incubation for 10 minutes, and the absorbance was measured at 550 nm using a microplate reader (SPCTRA MAX 340PC, Molecular Devices, USA). Absorbance is calculated by the formula below as an indicator of the number of cells that survived, and reproducibility was confirmed by three experiments.
(§4) The rate of cell proliferation (%)=OD550(sample)/OD550(control)

Structure (SMILES)	LD50 Normal cells RAW264.7
COc1ccc(/C=C/C(C)=O)cc1O [KP5, (E)-4-(3-hydroxy-4-methoxyphenyl)-3-buten-2-one]	261 ± 79 µM
Cc1ccc(/C=C/C(N)=O)cc1O [KP7, (E)-3-(3-hydroxy-4-methylphenyl)acrylamide]	>5000 µM
NC(=O)/C=C/c1ccc(F)c(O)c1 [KP8, (E)-3-(4-fluoro-3-hydroxyphenyl)acrylamide]	>5000 µM

Tested on: NIH3T3 mouse fibroblast line
Assay: MTT assay, normal cells NIH3T3
Type: cell-based
Conditions: mouse, 48 h
Text: as §1, §2, §3, §4

Structure (SMILES)	LD50 Normal cells NTH3T3
COc1ccc(/C=C/C(C)=O)cc1O [KP5, (E)-4-(3-hydroxy-4-methoxyphenyl)-3-buten-2-one]	>5000 µM
Cc1ccc(/C=C/C(N)=O)cc1O [KP7, (E)-3-(3-hydroxy-4-methylphenyl)acrylamide]	>5000 µM
NC(=O)/C=C/c1ccc(F)c(O)c1 [KP8, (E)-3-(4-fluoro-3-hydroxyphenyl)acrylamide]	>5000 µM

Tested on: AGS human gastric cancer cell line
Assay: MTT assay, cancer cells AGS
Type: cell-based
Conditions: 48 hours
Text: as §1, §2, §3, §4

Structure (SMILES)	LD63 Cancer cell AGS
COc1ccc(/C=C/C(C)=O)cc1O [KP5, (E)-4-(3-hydroxy-4-methoxyphenyl)-3-buten-2-one]	181 ± 15 µM
Cc1ccc(/C=C/C(N)=O)cc1O [KP7, (E)-3-(3-hydroxy-4-methylphenyl)acrylamide]	329 ± 14 µM
NC(=O)/C=C/c1ccc(F)c(O)c1 [KP8, (E)-3-(4-fluoro-3-hydroxyphenyl)acrylamide]	569 ± 4.8 µM

Tested on: A549 human lung cancer cell line
Assay: MTT assay, cancer cells A549
Type: cell-based
Conditions: MTT assay, 48 hours, A549
Text: as §1, §2, §3, §4

Structure (SMILES)	LD63 Cancer cell A549
COc1ccc(/C=C/C(C)=O)cc1O [KP5, (E)-4-(3-hydroxy-4-methoxyphenyl)-3-buten-2-one]	1890 ± 210 µM
Cc1ccc(/C=C/C(N)=O)cc1O [KP7, (E)-3-(3-hydroxy-4-methylphenyl)acrylamide]	989 ± 50 µM
NC(=O)/C=C/c1ccc(F)c(O)c1 [KP8, (E)-3-(4-fluoro-3-hydroxyphenyl)acrylamide]	935 ± 10 µM

Tested on: HepG2 human liver cancer cell line
Assay: MTT assay, cancer cells HepG2
Type: cell-based
Conditions: HepG2 hepatocellular carcinoma cells
Text: as §1, §2, §3, §4

Structure (SMILES)	cancer cell inhibitory activity versus Osmundacetone
Cc1ccc(/C=C/C(N)=O)cc1O [KP7, (E)-3-(3-hydroxy-4-methylphenyl)acrylamide]	significantly better cancer cell inhibitory activity

Same assay, conditions: MTT assay, 48 hours, HepG2

Structure (SMILES)	LD63 Cancer cell HepG2
Cc1ccc(/C=C/C(N)=O)cc1O [KP7, (E)-3-(3-hydroxy-4-methylphenyl)acrylamide]	379 ± 38 µM
NC(=O)/C=C/c1ccc(F)c(O)c1 [KP8, (E)-3-(4-fluoro-3-hydroxyphenyl)acrylamide]	1280 ± 390 µM

Tested on: HCT116 human colon cancer cell line
Assay: MTT assay, cancer cells HCT116
Type: cell-based
Conditions: HP116 colorectal cancer cells
Text: as §1, §2, §3, §4

Structure (SMILES)	inhibitory activity better than Osmundacetone
Cc1ccc(/C=C/C(N)=O)cc1O [KP7, (E)-3-(3-hydroxy-4-methylphenyl)acrylamide]	2 times

Same assay, conditions: MTT assay, 48 hours, HCT116

Structure (SMILES)	LD63 Cancer cell HCT116
COc1ccc(/C=C/C(C)=O)cc1O [KP5, (E)-4-(3-hydroxy-4-methoxyphenyl)-3-buten-2-one]	491 ± 72 µM
Cc1ccc(/C=C/C(N)=O)cc1O [KP7, (E)-3-(3-hydroxy-4-methylphenyl)acrylamide]	315 ± 19 µM
NC(=O)/C=C/c1ccc(F)c(O)c1 [KP8, (E)-3-(4-fluoro-3-hydroxyphenyl)acrylamide]	>5,000 μM

Tested on: PC3 human prostate cancer Cell line
Assay: MTT assay, cancer cells PC3
Type: cell-based
Conditions: 48 hours
Text: as §1, §2, §3, §4

Structure (SMILES)	LD63 Cancer cell PC3
COc1ccc(/C=C/C(C)=O)cc1O [KP5, (E)-4-(3-hydroxy-4-methoxyphenyl)-3-buten-2-one]	291 ± 5.7 µM
Cc1ccc(/C=C/C(N)=O)cc1O [KP7, (E)-3-(3-hydroxy-4-methylphenyl)acrylamide]	394 ± 140 µM
NC(=O)/C=C/c1ccc(F)c(O)c1 [KP8, (E)-3-(4-fluoro-3-hydroxyphenyl)acrylamide]	>5,000 μM

Tested on: Caki-1 human kidney cancer cell line
Assay: MTT assay, cancer cells Caki-1
Type: cell-based
Conditions: 48 hours
Text: as §1, §2, §3, §4

Structure (SMILES)	LD63 Cancer cell Caki-1
COc1ccc(/C=C/C(C)=O)cc1O [KP5, (E)-4-(3-hydroxy-4-methoxyphenyl)-3-buten-2-one]	409 ± 11 µM
Cc1ccc(/C=C/C(N)=O)cc1O [KP7, (E)-3-(3-hydroxy-4-methylphenyl)acrylamide]	361 ± 16 µM
NC(=O)/C=C/c1ccc(F)c(O)c1 [KP8, (E)-3-(4-fluoro-3-hydroxyphenyl)acrylamide]	2990 ± 58 µM

Tested on: T24 human bladder cancer cell line
Assay: MTT assay, cancer cells T24
Type: cell-based
Conditions: MTT assay, 48 hours, T24
Text: as §1, §2, §3, §4

Structure (SMILES)	LD63 Cancer cell T24
COc1ccc(/C=C/C(C)=O)cc1O [KP5, (E)-4-(3-hydroxy-4-methoxyphenyl)-3-buten-2-one]	>5000 µM
Cc1ccc(/C=C/C(N)=O)cc1O [KP7, (E)-3-(3-hydroxy-4-methylphenyl)acrylamide]	1040 ± 360 µM
NC(=O)/C=C/c1ccc(F)c(O)c1 [KP8, (E)-3-(4-fluoro-3-hydroxyphenyl)acrylamide]	203 ± 69 µM

Same assay, conditions: T24 bladder cancer cells

Structure (SMILES)	inhibitory activity
NC(=O)/C=C/c1ccc(F)c(O)c1 [KP8, (E)-3-(4-fluoro-3-hydroxyphenyl)acrylamide]	particularly better inhibitory activity

Tested on: HT1080 human fibrosarcoma cell line
Assay: MTT assay, cancer cells HT1080
Type: cell-based
Conditions: 48 hours
Text: as §1, §2, §3, §4

Structure (SMILES)	LD63 Cancer cell HT1080
COc1ccc(/C=C/C(C)=O)cc1O [KP5, (E)-4-(3-hydroxy-4-methoxyphenyl)-3-buten-2-one]	381 ± 49 µM
Cc1ccc(/C=C/C(N)=O)cc1O [KP7, (E)-3-(3-hydroxy-4-methylphenyl)acrylamide]	309 ± 10 µM
NC(=O)/C=C/c1ccc(F)c(O)c1 [KP8, (E)-3-(4-fluoro-3-hydroxyphenyl)acrylamide]	1090 ± 19 µM

Tested on: B16F10 mouse melanoma cell line
Assay: MTT assay, cancer cells B16F10
Type: cell-based
Conditions: 48 hours, H16F10
Text: as §1, §2, §3, §4

Structure (SMILES)	Cytotoxicity, B16F10 cells
COc1ccc(/C=C/C(C)=O)cc1O [KP5, (E)-4-(3-hydroxy-4-methoxyphenyl)-3-buten-2-one]	441 ± 58 µM
Cc1ccc(/C=C/C(N)=O)cc1O [KP7, (E)-3-(3-hydroxy-4-methylphenyl)acrylamide]	1210 ± 110 µM
NC(=O)/C=C/c1ccc(F)c(O)c1 [KP8, (E)-3-(4-fluoro-3-hydroxyphenyl)acrylamide]	>5,000 μM

Tested on: osteoclast differentiation from bone marrow cells (RANKL and M-CSF)
Assay: TRAP assay, osteoclast differentiation and proliferation
Type: cell-based, C57BL/6 mice
Conditions: Osteoclast; TRAP-positive multinucleated cells, mouse bone marrow cells, 6-7 days; read-out: osteoclast differentiation inhibitory activity IC50
Description: The specific method of the TRAP assay is as follows:
The tibia and femur were aseptically excised from 6 to 8 weeks old male C57BL/6 mice, and bone marrow cells were collected aseptically with a syringe (21G, Korea Green Cross). Bone marrow cells were suspended in 500 μl of -MEM medium (Gibco BRL Co.) containing sodium bicarbonate (2.0 g/L), streptomycin (100 mg/L) and penicillin ([…]), and aliquoted into a 48-well plate, and assay was carried out with triplicate. The progenitor cells of osteoclasts, monocytes, were isolated and treated with RANKL and M-CSF, which are differentiation promoters, to differentiate into osteoclasts within 5-7 days.
1) Sample preparation: KP2 to KP8 (0.5 μM, 1 μM, 5 μM or 10 μM), Fosamax (0.5 μM, 1 μM, 5 μM, or 10 μM) and the like were dissolved in DMSO (dimethylsulfoxide) or sterile distilled water at appropriate concentrations, respectively.
2) Sample administration: The Samples were continuously administered to the medium at 1:20 (v/v; 25 μL of sample per 500 μL of medium) from the first day of culture of bone marrow cells, and the medium was replaced at 3 days intervals.
3) Osteoclast differentiation measurement: Osteoclasts were defined as TRAP-positive multinucleated cells stained with TRAP. […] The reaction reagents were stored in the refrigerator until use.
Bone marrow cells were cultured in a medium containing differentiation factors for 6-7 days, and then the medium was removed, washed with PBS, and fixed in PBS containing 10% formalin for 2-5 minutes. After fixed for 1 minute with a 1:1 mixture of ethanol and acetone, and dried. The fixed cells were treated with TRAP staining solution for 60 minutes at 37° C. with light blocking, washed with PBS, and then stained with Hematoxylin.
Among the TRAP-positive cells in the microscope field, cells with two or more nuclei were determined as osteoclasts and the number of cells was measured.

Structure (SMILES)	IC50
NCCCC(O)(P(=O)(O)O)P(=O)(O)O [Fosamax, reference compound]	4000 nM
COc1ccc(/C=C/C(C)=O)cc1O [KP5, (E)-4-(3-hydroxy-4-methoxyphenyl)-3-buten-2-one]	1000 nM

Tested on: osteoblasts (mouse MC3T3-E1)
Assay: ALP (Alkaline phosphatase) assay, osteoblast activity
Type: cell-based
Conditions: 10 μM and 50 μM
Description: Effect of KP4 to KP6 on proliferation and differentiation of osteoblast were confirmed using ALP (Alkaline phosphatase) assay, a method for measuring osteoblast activity.
Alkaline phosphatase (ALP), which is present in the cell membranes of osteoblasts, is known as a marker of osteoblast activity and is a regulator of inorganic phosphate transport, cell division or differentiation during calcification. Therefore, ALP activity was measured to determine the effect of the compounds of the present invention on the activity of osteoblasts. ALP activity was indirectly calculated by measuring the amount of p-nitrophenol, which is produced from hydrolysis of p-nitrophenyl phosphate (pNPP, Sigma, St. Louis, Mo., USA) in which ALP act as a catalyst, using a microplate reader at 405 nm wavelength.
Specifically, osteoblasts (mouse MC3T3-E1) were aliquoted into a 96-well plate (3×10^3 cells/100 μL/well) with α-MEM medium containing ascorbic acid (50 μg/mL) and 10 mM β-glycerophosphate, a differentiation factors of osteoblast. Then, KP4 to KP6 of the present invention, and osmundacetone were added at a final concentration of 10 μM and 50 μM, followed by changing medium every 72 hours and incubating for 14 days. After 14 days, the culture medium was removed from each well, washed three times with PBS, lysed with 0.2% Nonidet P-40/10 mmol/L MgCl2, and then treated ultrasonic wave with sosonifier cell disrupter (Model W-380, Heat Systems-Ultrasonics Inc., Farmingdale, N.Y.) for 3 minutes. The cell lysate was centrifuged at 1500 g for 10 minutes and the supernatant was collected to measure ALP activity. To account for changes in ALP activity according to cell number differences, total protein levels were measured using bicinchoninic acid (BCA) protein assay kit with bovine serum albumin as the standard protein, and enzyme activity was expressed as a percentage against the control group without the compound treatment.

Structure (SMILES)	ALP activity / osteoblast activation versus control
COc1ccc(/C=C/C(C)=O)cc1O [KP5, (E)-4-(3-hydroxy-4-methoxyphenyl)-3-buten-2-one]	higher ALP activity

Same assay, conditions: 10 μM, MC3T3-E1, 14 days, percentage against control

Structure (SMILES)	% Activation of ALP activity
COc1ccc(/C=C/C(C)=O)cc1O [KP5, (E)-4-(3-hydroxy-4-methoxyphenyl)-3-buten-2-one]	103 ± 1.1%

Same assay, conditions: 50 μM, MC3T3-E1, 14 days, percentage against control

Structure (SMILES)	% Activation of ALP activity
COc1ccc(/C=C/C(C)=O)cc1O [KP5, (E)-4-(3-hydroxy-4-methoxyphenyl)-3-buten-2-one]	175 ± 0.3%
